{
  "source": "DBAASP",
  "assay_in_all_cases": "≥ marks a high value that may be exact or a test limit, other limits are often not marked, values filed in µg/mL are converted to µM",
  "key": {"[1]": {"system": "Candida albicans CPCC 400416"}, "[2]": {"system": "Escherichia coli CPCC 100521"}, "[3]": {"system": "Staphylococcus aureus CPCC 100520"}, "Candida albicans C627": {"system": "Candida albicans C627"}, "[4]": {"system": "Enterococcus faecium mic80"}, "[5]": {"system": "Escherichia coli ESBL 63103"}, "[6]": {"system": "Pseudomonas aeruginosa 213"}, "[7]": {"system": "Pseudomonas aeruginosa H103"}, "[8]": {"system": "Pseudomonas aeruginosa LES400"}, "[9]": {"system": "Staphylococcus aureus ATCC 25923"}, "[10]": {"system": "Staphylococcus aureus C623"}, "Escherichia coli HB101": {"system": "Escherichia coli HB101"}, "[11]": {"system": "Leishmania major MHOM/IL/67/JERICHO-II"}, "[12]": {"system": "Staphylococcus aureus Cowan 1"}, "[13]": {"system": "Candida albicans 08022821"}, "[14]": {"system": "Candida albicans 08030102"}, "[15]": {"system": "Candida albicans 08030401"}, "[16]": {"system": "Candida albicans 08032815"}, "[17]": {"system": "Candida albicans ATCC 2002"}, "[18]": {"system": "Escherichia coli ATCC 25922"}, "Shigella dysenteriae": {"system": "Shigella dysenteriae"}, "[19]": {"system": "Staphylococcus aureus ATCC 2592"}},
  "data": [
    {"compound": "CC[C@H](C)[C@H](N)C(=O)N[C@H](C(=O)NCC(=O)N1CCC[C@H]1C(=O)N[C@H](C(=O)N[C@@H](CC(C)C)C(=O)NCC(=O)N[C@@H](CC(C)C)C(=O)N[C@H](C(=O)NCC(=O)N[C@@H](CCCCN)C(=O)N[C@@H](C)C(=O)N[C@@H](CC(C)C)C(=O)NCC(=O)NCC(=O)N[C@@H](CC(C)C)C(=O)N[C@@H](CC(C)C)C(N)=O)[C@@H](C)CC)C(C)C)[C@@H](C)CC", "note": "[IIGPVLGLIGKALGGLL]", "values": [
      {"measurement": "MIC", "setting": "[1]", "value": "≥ 160", "unit": "µM"},
      {"measurement": "MIC", "setting": "[2]", "value": "≥ 639", "unit": "µM"},
      {"measurement": "MIC", "setting": "[3]", "value": "≥ 160", "unit": "µM"}
    ]},
    {"compound": "CC(C)C[C@H](NC(=O)[C@H](CC(C)C)NC(=O)[C@H](CCCN=C(N)N)NC(=O)[C@H](Cc1c[nH]c2ccccc12)NC(=O)[C@H](Cc1c[nH]c2ccccc12)NC(=O)[C@H](CCCN=C(N)N)NC(=O)[C@H](CCCCN)NC(=O)[C@H](Cc1c[nH]c2ccccc12)NC(=O)[C@@H](N)CCCN=C(N)N)C(=O)O", "note": "[RWKRWWRLL]", "values": [
      {"measurement": "MIC", "setting": "Candida albicans C627", "value": 5.72, "unit": "µM"},
      {"measurement": "MIC", "setting": "[4]", "value": 5.72, "unit": "µM"},
      {"measurement": "MIC", "setting": "[5]", "value": 11.4, "unit": "µM"},
      {"measurement": "MIC", "setting": "[6]", "value": "≥ 45.7", "unit": "µM"},
      {"measurement": "MIC", "setting": "[7]", "value": 22.9, "unit": "µM"},
      {"measurement": "MIC", "setting": "[8]", "value": 22.9, "unit": "µM"},
      {"measurement": "MIC", "setting": "[9]", "value": 11.4, "unit": "µM"},
      {"measurement": "MIC", "setting": "[10]", "value": 5.72, "unit": "µM"}
    ]},
    {"compound": "CSCC[C@H](NC(=O)[C@@H](NC(=O)[C@H](CCCCN)NC(=O)[C@H](Cc1c[nH]c2ccccc12)NC(=O)[C@H](CC(C)C)NC(=O)[C@H](C)N)[C@@H](C)O)C(=O)N[C@@H](CC(C)C)C(=O)N[C@@H](CCCCN)C(=O)N[C@@H](CCCCN)C(=O)N[C@@H](CC(C)C)C(=O)NCC(=O)N[C@H](C(N)=O)[C@@H](C)O", "note": "[ALWKTMLKKLGT]", "values": [
      {"measurement": "MIC", "setting": "Escherichia coli HB101", "value": "≥ 54", "unit": "µM"},
      {"measurement": "MIC", "setting": "[11]", "value": "≥ 54.2", "unit": "µM"},
      {"measurement": "MIC", "setting": "[12]", "value": "≥ 54", "unit": "µM"}
    ]},
    {"compound": "CC[C@H](C)[C@H](NC(=O)[C@H](CCC(N)=O)NC(=O)[C@H](CCCCN)NC(=O)[C@H](Cc1ccc(O)cc1)NC(=O)[C@H](CC(C)C)NC(=O)[C@H](CCC(N)=O)NC(=O)[C@@H]1CCCN1C(=O)[C@H](CCSC)NC(=O)[C@H](CCCCN)NC(=O)[C@@H](NC(=O)[C@H](CCCN=C(N)N)NC(=O)[C@H](CCCCN)NC(=O)[C@@H](NC(=O)[C@H](CCSC)NC(=O)[C@@H](NC(=O)[C@H](CC(C)C)NC(=O)[C@@H](NC(=O)[C@@H](N)CCCN=C(N)N)[C@@H](C)CC)[C@@H](C)O)[C@@H](C)O)C(C)C)C(=O)N[C@H](C(=O)N[C@H]1CSSC[C@@H](C(=O)O)NC(=O)[C@H]([C@@H](C)O)NC(=O)[C@H](CCCCN)NC(=O)[C@H](Cc2ccccc2)NC(=O)[C@H](CC(C)C)NC(=O)[C@H](CCCN=C(N)N)NC1=O)C(C)C", "note": "[RILTMTKRVKMPQLYKQIVCRLFKTC]", "values": [
      {"measurement": "MIC", "setting": "[13]", "value": 7.81, "unit": "µM"},
      {"measurement": "MIC", "setting": "[14]", "value": 31.3, "unit": "µM"},
      {"measurement": "MIC", "setting": "[15]", "value": 15.6, "unit": "µM"},
      {"measurement": "MIC", "setting": "[16]", "value": "≥ 62.5", "unit": "µM"},
      {"measurement": "MIC", "setting": "[17]", "value": 3.13, "unit": "µM"},
      {"measurement": "MIC", "setting": "[18]", "value": 31.3, "unit": "µM"},
      {"measurement": "MIC", "setting": "Shigella dysenteriae", "value": 15.6, "unit": "µM"},
      {"measurement": "MIC", "setting": "[19]", "value": 15.6, "unit": "µM"}
    ]}
  ]
}
